# Measurements from US11179329B2, “Therapeutical use of H3-ligands” (BIOPROJET Pharma, priority 2017, dated 2021).
# Like-named read-outs stand apart in the source and are kept apart here.
# How the values were obtained:
# [1] = PK results in human, Compound (A) given orally once-a-day; assay type: in vivo; conditions: for Cmax: po, 60 ug
# Experimental: Steady state seems to be attained after 7 to 8 days of treatment for the 60 μg dose.
# [2] = system: vigilance; experiment: Activity on vigilance in human; assay type: in vivo
# [3] = system: H3 receptor; experiment: H3R occupancy in brain by PET imaging with [11C]GSK189254 in healthy volunteers; assay type: in vivo; conditions: human
# Experimental: The process of imaging requires the injection of a positron-emitting radiotracer that binds to the receptor followed by the measurement of this binding using the PET scanner.
# This method allows to predict the therapeutic dose of a new H3 receptor inverse agonist/antagonist in two steps: 1/the degree of receptor occupancy associated with the dose ensuring therapeutic efficacy of a known drug A is determined, 2/the dose of the new drug B ensuring the same receptor occupancy as A at therapeutic dose is evaluated.
# This strategy was applied by comparing H3R occupancy in healthy volunteers receiving pitolisant, an approved and marketed H3R inverse agonist, at its oral maximal therapeutic dose of 40 mg to occupancy by Compound (A) given at several dosages.
# [4] = PK results in human, Compound (A) given orally once-a-day; assay type: in vivo; conditions: for Cmax: serum, po, 90 ug
# [5] = Solid-state stability / hygroscopicity of the dihydrochloride forms; assay type: physicochemical
# Experimental: The tetrahydrate of compound (A) is stable for relative humidity ranging from at least 30% to 70% which is an improved property as compared to the hygroscopic nature of the previously described dihydrochloride. The tetrahydrate of compound (A) is also stable for temperatures ranging from 20° C. to 40° C.
# [6] = Comparative pharmacokinetic data in mice (plasma and brain); conditions: male swiss mice; for AUC brain / AUC plasma: normalized at 1 mg of base/kg, 24 hours sampling
# Experimental: (§1) Compounds were administered to male swiss mice at a dose close to 1 mg of base/kg.
# [7] = mouse, in vivo
# Experimental: as §1
# [8] = in vivo; cited from earlier work
# [9] = biological target: histamine H3 receptor (Homo sapiens, UniProt Q9Y5N1); conditions: cited from earlier work
# Sequence of histamine H3 receptor (Q9Y5N1 whole entry, species assumed): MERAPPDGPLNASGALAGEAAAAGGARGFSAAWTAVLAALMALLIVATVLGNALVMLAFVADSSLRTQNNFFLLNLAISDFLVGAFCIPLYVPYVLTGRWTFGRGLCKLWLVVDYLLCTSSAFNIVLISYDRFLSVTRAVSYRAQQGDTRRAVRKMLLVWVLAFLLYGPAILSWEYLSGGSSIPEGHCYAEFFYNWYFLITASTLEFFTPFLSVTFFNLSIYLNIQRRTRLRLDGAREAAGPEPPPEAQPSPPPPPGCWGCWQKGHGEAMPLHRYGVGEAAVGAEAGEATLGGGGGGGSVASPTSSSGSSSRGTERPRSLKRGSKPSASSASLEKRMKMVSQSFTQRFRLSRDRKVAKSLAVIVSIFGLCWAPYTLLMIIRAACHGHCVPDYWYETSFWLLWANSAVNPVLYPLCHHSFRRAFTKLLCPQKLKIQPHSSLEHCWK
Compound,ratio of plasma AUC over the AUC of the dihydrochloride tetrahydrate [6],AUC brain [6] [ng·h/g],AUC plasma [6] [ng·h/mL],ratio of plasma AUC over the AUC of the dihydrochloride tetrahydrate [7],also measured
"C[C@H]1CCCN(CCCOc2ccc(-c3cc[n+]([O-])cc3)cc2)C1 [Compound (A), (3S)-4-{4-[3-(3-methylpiperidin-1-yl)propoxy]phenyl}pyridine 1-oxide]",,,,,"dose proportionality of serum exposure (mean Cmax and AUC0-24 h dose normalized ratios) ([1]; human volunteers, between 60 and 90 μg o.d., Day 1 and Day 10): tendency to increase more than dose-proportionally; decrease of total body clearance (Clss/F) after repeated dosing ([1]; human, 60 μg): 65%; higher AUC0-24 h after repeated dosing (Day 10) than after a single dose (Day 1) ([1]; human, 60 μg): 73%; higher Cmax after repeated dosing (Day 10) than after a single dose (Day 1) ([1]; human, 60 μg): 42%; Cmax ([1]; human, serum, human, oral 60 μg once-a-day, after repeated dose): 0.172 ng/mL; Cmax ([1]; human, serum, human, oral 60 μg, after a single dose): 0.121 ng/mL; half-life ([1]; serum, oral, human, determined at Day 10 after multiple administrations, read-out: mean t1/2 (converted)): ~33 h; activity on vigilance ([2]; 30 μg daily, when going to bed at night): delay in falling asleep; effect of repeated treatment on sleep ([2]; 90 μg once-a-day for 10 days): some insomnia; Percent H3R occupancy ± SD At through (24 h) ([3]; 30 μg once): −46.50 ± 12.71%; potency relative to the marketed drug pitolisant ([3]; doses of equal H3R occupancy): 1,000 fold; decrease of total body clearance (Clss/F) after repeated dosing ([4]; 90 μg): 74%; higher AUC0-24 h after repeated administration (% accumulation) ([4]; 90 μg): 113%; higher Cmax after repeated administration (% accumulation) ([4]; 90 μg): 101%; Cmax ([4]; oral 90 μg once-a-day, after repeated dose): 0.344 ng/mL; Cmax ([4]; oral 90 μg, after a single dose): 0.171 ng/mL"
"C[C@H]1CCCN(CCCOc2ccc(-c3cc[n+]([O-])cc3)cc2)C1.Cl.Cl.O.O.O.O [Example 4, (3S)-4-{4-[3-(3-methylpiperidin-1-yl)propoxy]phenyl}pyridine 1-oxide dihydrochloride tetrahydrate]",1.0,1040,619,,stability (general) [5]: very stable; stability against relative humidity ([5]; relative humidity ranging from at least 30% to 70%): stable; stability against temperature ([5]; temperatures ranging from 20° C. to 40° C.): stable
"C[C@H]1CCCN(CCCOc2ccc(-c3cc[n+]([O-])cc3)cc2)C1 [Example 5, (3S)-4-{4-[3-(3-methylpiperidin-1-yl)propoxy]phenyl}pyridine 1-oxide base]",1.2,860,769,,
"C[C@H]1CCCN(CCCOc2ccc(-c3cc[n+]([O-])cc3)cc2)C1.O=C(O)C(=O)O [Example 6, (3S)-4-{4-[3-(3-methylpiperidin-1-yl)propoxy]phenyl}pyridine 1-oxide oxalate]",0.9,923,562,,
"C[C@H]1CCCN(CCCOc2ccc(-c3cc[n+]([O-])cc3)cc2)C1.O.O.O.O=C(O)C(O)C(O)C(=O)O [Example 7, (3S)-4-{4-[3-(3-methylpiperidin-1-yl)propoxy]phenyl}pyridine 1-oxide L-tartrate trihydrate]",0.7,814,447,,
"C[C@H]1CCCN(CCCOc2ccc(-c3cc[n+]([O-])cc3)cc2)C1.O=C(O)c1cc2ccccc2c(Cc2c(O)c(C(=O)O)cc3ccccc23)c1O [Example 8, (3S)-4-{4-[3-(3-methylpiperidin-1-yl)propoxy]phenyl}pyridine 1-oxide pamoate]",0.9,952,587,,
"C[C@H]1CCCN(CCCOc2ccc(-c3cc[n+]([O-])cc3)cc2)C1.O=C(O)/C=C/C(=O)O [Example 9, (3S)-4-{4-[3-(3-methylpiperidin-1-yl)propoxy]phenyl}pyridine 1-oxide fumarate]",0.7,882,448,,
"C[C@H]1CCCN(CCCOc2ccc(-c3cc[n+]([O-])cc3)cc2)C1.C[C@H]1CCCN(CCCOc2ccc(-c3cc[n+]([O-])cc3)cc2)C1.Cc1ccc(S(=O)(=O)O)cc1.Cc1ccc(S(=O)(=O)O)cc1.O.O.O.O.O [Example 10, (3S)-4-{4-[3-(3-methylpiperidin-1-yl)propoxy]phenyl}pyridine 1-oxide para-toluenesulfonate sestertihydrate (2.5)]",,,,1.2,
"CCO.C[C@H]1CCCN(CCCOc2ccc(-c3cc[n+]([O-])cc3)cc2)C1.C[C@H]1CCCN(CCCOc2ccc(-c3cc[n+]([O-])cc3)cc2)C1.O.O.O=S(=O)(O)c1cccc2c(S(=O)(=O)O)cccc12.O=S(=O)(O)c1cccc2c(S(=O)(=O)O)cccc12 [Example 11, (3S)-4-{4-[3-(3-methylpiperidin-1-yl)propoxy]phenyl}pyridine 1-oxide 1,5-naphtalenedisulfonate monohydrate hemiethanolate]",,,,0.7,
"C[C@H]1CCCN(CCCOc2ccc(-c3cc[n+]([O-])cc3)cc2)C1.O=P(O)(O)O [Example 12, (3S)-4-{4-[3-(3-methylpiperidin-1-yl)propoxy]phenyl}pyridine 1-oxide phosphate]",0.6,630,350,,
"Br.C[C@H]1CCCN(CCCOc2ccc(-c3cc[n+]([O-])cc3)cc2)C1 [Example 13, (3S)-4-{4-[3-(3-methylpiperidin-1-yl)propoxy]phenyl}pyridine 1-oxide bromhydrate]",,,,0.6,
"C[C@H]1CCCN(CCCOc2ccc(-c3cc[n+]([O-])cc3)cc2)C1.O=S(=O)(O)O [Example 15, (3S)-4-{4-[3-(3-methylpiperidin-1-yl)propoxy]phenyl}pyridine 1-oxide sulfate]",0.8,639,466,,
"Br.Br.C[C@H]1CCCN(CCCOc2ccc(-c3cc[n+]([O-])cc3)cc2)C1 [Example 16, (3S)-4-{4-[3-(3-methylpiperidin-1-yl)propoxy]phenyl}pyridine 1-oxide dibromhydrate]",,,,0.6,
"C[C@H]1CCCN(CCCOc2ccc(-c3cc[n+]([O-])cc3)cc2)C1.O.O=C(O)c1ccc2ccccc2c1O [Example 19, (3S)-4-{4-[3-(3-methylpiperidin-1-yl)propoxy]phenyl}pyridine 1-oxide 1-hydroxy-2-naphtoate monohydrate]",,,,0.6,
"C[C@H]1CCCN(CCCOc2ccc(-c3cc[n+]([O-])cc3)cc2)C1.O=C(O)c1cc2ccccc2cc1O [Example 20, (3S)-4-{4-[3-(3-methylpiperidin-1-yl)propoxy]phenyl}pyridine 1-oxide 3-hydroxy-2-naphtoate]",,,,0.6,
[11CH3]NC(=O)c1ccc(Oc2ccc3c(c2)CCN(C2CCC2)CC3)nc1 [[^11C]GSK189254],,,,,brain penetration [8]: good brain penetration; terminal half-life [8]: 1.6 ± 0.4 h; affinity for the histamine H3 receptor [9]: high affinity
(3S)-4-{4-[3-(3-methylpiperidin-1-yl)propoxy]phenyl}pyridine 1-oxide 5-sulfosalicylate [Example 18],0.6,513,400,,
(3S)-4-{4-[3-(3-methylpiperidin-1-yl)propoxy]phenyl}pyridine 1-oxide orotate dihydrate [Example 17],0.6,529,389,,
(3S)-4-{4-[3-(3-methylpiperidin-1-yl)propoxy]phenyl}pyridine 1-oxide sesquiglycolate monohydrate [Example 21],0.6,484,348,,
